This note sets out measurements from patent US20210177889A1, “GASEOUS PHARMACEUTICAL COMPOSITION FOR HYPERTENSION THERAPY” (KEIO UNIVERSITY, priority 2019, published 2021).

Experiment [1] concerns autonomic nervous system activity. Kind of experiment: Spectral analysis of blood pressure variability (autonomic nervous system) in 5/6 nephrectomized rats. Format: in vivo, Lewis rat. The procedure:
Heart rate variability was analyzed using telemetry system software (Ponemah Ver. 6.3, Data Science International). Frequency domain analysis (sampling rate of 500 Hz; very low frequency (VLF) (0.05-0.25 Hz); low frequency (LF) (0.25-1.0 Hz); and high frequency (HF) (1.0-3.0 Hz)) was carried out using the arterial pressure waveform data of the first one minute of every five minutes (about 300 to 400 beats). In heart rate variability analysis, data recorded in the first 15 minutes was excluded, and effective data in the first one minute out of a block of every 5 minutes was used. LF and HF each reflected the sympathetic nerve component and the parasympathetic nerve component (Akselrod, S. et al. Power spectrum analysis of heart rate fluctuation: a quantitative probe of beat-to-beat cardiovascular control. Science 213, 220-222 (1981); Pagani, M. et al. Power spectral analysis of heart rate and arterial pressure variabilities as a marker of sympatho-vagal interaction in man and conscious dog. Circ. Res. 59, 178-193 (1986); and Montano, N. et al. Power spectrum analysis of heart rate variability to assess the changes in sympathovagal balance during graded orthostatic tilt. Circulation 90, 1826-1831 (1994)). LF/HF ratio and HF/(LF+HF) were each handled as indicators of sympathetic nerve activity and parasympathetic nerve activity (Heart rate variability: standards of measurement, physiological interpretation and clinical use. Task Force of the European Society of Cardiology and the North American Society of Pacing and Electrophysiology. Circulation 93, 1043-1065 (1996); and Pagani, M. et al. Relationship between spectral components of cardiovascular variabilities and direct measures of muscle sympathetic nerve activity in humans. Circulation 95, 1441-1448 (1997)).
H2 gas (1.3% H2+21% O2+77.7 N2) and control gas (21% O2+79% N2) were filled into gas cylinders in advance at a factory. The H2 group and the control group were allowed to inhale the H2 gas and the control gas that were mixed in advance. […]

In experiment [2] the test system is spontaneous hypertension rats (SHR). Kind of experiment: Hemodynamics effect of inhaled H2 in spontaneous hypertension rats (telemetry). Format: in vivo, rat (SHR/Izumo). As for the experimental part:
Male Lewis rats (8 weeks-old, body weight 250-300 g), and 10 weeks-old male spontaneous hypertension rats (SHR/Izumo rats; hereinafter simply referred to as SHR) were used (CLEA Japan). Rats were given water and standard food ad libitum, and were not fasted before experiment. Rats were kept under a condition of standardized temperature (22±1° C.) and humidity (55±5) in a 12 hours:12 hours of light-dark cycle. Rats were acclimated to the experimental condition from at least one week before the experiment. This research was approved by institutional animal control committees (Keio University [Tokyo], No. 13002-4; and Nippon Veterinary and Life Science University [Tokyo], No. 30K-61). Rats were randomly assigned to the H2 group or the control group.
In order to monitor continuous blood pressure fluctuation, telemetry transmitters were implanted into rats. Specifically, rats were anesthetized with isoflurane, and the left groin was disinfected with 1% chlorhexidine. An incision of about 1.5 cm was made in the left groin, the left femoral artery was exposed, and a telemetry transmitter (HD-S10, Physiotel HD Telemetry, Data Science International) catheter was inserted into the left femoral artery. The tip of the transmitter catheter was placed in the abdominal aorta caudally from the branch of the renal artery. The transmitter body was inserted into a subcutaneous pocket made in the left lower back, and the skin was sutured. All surgical intervention was performed under sterile conditions.
H2 gas (1.3% H2+21% O2+77.7 N2) and control gas (21% O2+79% N2) were filled into gas cylinders in advance at a factory. The H2 group and the control group were allowed to inhale the H2 gas and the control gas that were mixed in advance. All animals were allowed to inhale the assigned gas at 10 L/minute for 1 hour in an established anesthesia box, and inhaled for an additional three minutes to purge the box (i.e. a total of 63 minutes). In the nephrectomy model and SHR, gas inhalation was repeated every day for 4 weeks and 2 weeks, respectively.
Spontaneous hypertension rats (SHR) are a well-established hereditary hypertensive model that is broadly used in hypertensive research (Okamoto, K. & Aoki, K. Development of a strain of spontaneously hypertensive rats. Jpn. Circ. J. 27, 282-293 (1963); and Rubattu, S., Struk, B., Kreutz, R., Volpe, M. & Lindpaintner, K. Animal models of genetic hypertension: what can we learn for human hypertension? Clin. Exp. Pharmacol. Physiol. 22, S386-393 (1995)). In order to investigate the consistency of the hypotensive effect of H2 in other hypertensive models, the therapeutic effect of H2 gas against hypertension of SHR was investigated (FIG. 1d). […]

Where [3] appears, read: baseline (day 0) to 4 weeks after starting H2 inhalation, vs control 5/6 nephrectomy group.
Where [4] appears, read: Week 2 compared to Week 1 of daily inhalation, N=3.
Setting [5] is: Week 3 (week after 2 weeks of inhalation).

In the case of `[2H][2H]` [H2 gas, Molecular hydrogen (H2)], in experiment [1] (setting [3]), the “decrease in HF power (normalised units), change from baseline” value is “significantly suppressed” and the “increase in LF power (normalised units), change from baseline” value is “significantly suppressed”. Besides, in experiment [1] (over a 4-week time course, tendency to be suppressed), the “increase in LF power and decrease in HF power, compared as continuous variables” value was “not significant”. Further, in experiment [2] (setting [4]), the “increase in blood pressure” value is listed as “suppressed” and the “increase in heart rate” value is listed as “suppressed”. Also, in experiment [2] (setting [5]), the “blood pressure after inhalation was stopped” value is recorded as “stayed low” and the “heart rate after inhalation was stopped” value was “stayed low”.
